What was measured:
Assay type in all cases: functional
Conditions in all cases: 120 h, read-out: GI
Brassica napus [1] = assay: Herbicidal activity against Brassica napus (oilseed rape) assessed as inhibition of root growth at 10 mg/L using pre-emergence exposure protocol after 5 days
Brassica napus [2] = assay: Herbicidal activity against Brassica napus (oilseed rape) assessed as inhibition of stalk growth at 100 mg/L using pre-emergence exposure protocol after 5 days
Brassica napus [3] = assay: Herbicidal activity against Brassica napus (oilseed rape) assessed as inhibition of stalk growth at 10 mg/L using pre-emergence exposure protocol after 5 days
Echinochloa crus-galli [4] = assay: Herbicidal activity against Echinochloa crus-galli (barnyard grass) assessed as inhibition of root growth at 10 mg/L using pre-emergence exposure protocol after 5 days
Echinochloa crus-galli [5] = assay: Herbicidal activity against Echinochloa crus-galli (barnyard grass) assessed as inhibition of root growth at 100 mg/L using pre-emergence exposure protocol after 5 days
Echinochloa crus-galli [6] = assay: Herbicidal activity against Echinochloa crus-galli (barnyard grass) assessed as inhibition of stalk growth at 100 mg/L using pre-emergence exposure protocol after 5 days
Echinochloa crus-galli [7] = assay: Herbicidal activity against Echinochloa crus-galli (barnyard grass) assessed as inhibition of stalk growth at 10 mg/L using pre-emergence exposure protocol after 5 days
Brassica napus [8] = assay: Herbicidal activity against Brassica napus (oilseed rape) assessed as inhibition of root growth at 100 mg/L using pre-emergence exposure protocol after 5 days

SMILES	inhibition of growth at 10 µg/mL (Brassica napus [1]) [%]	inhibition of growth at 100 µg/mL (Brassica napus [2]) [%]	inhibition of growth at 10 µg/mL (Brassica napus [3]) [%]	inhibition of growth at 10 µg/mL (Echinochloa crus-galli [4]) [%]	inhibition of growth at 100 µg/mL (Echinochloa crus-galli [5]) [%]	inhibition of growth at 100 µg/mL (Echinochloa crus-galli [6]) [%]	inhibition of growth at 10 µg/mL (Echinochloa crus-galli [7]) [%]	inhibition of growth at 100 µg/mL (Brassica napus [8]) [%]
COc1ccc(-c2noc(C)c2-c2csc(C3CCN(C(=O)Nc4ccc(F)cc4)CC3)n2)cc1	46.9	53.6	14.3	59.1	86.4	37	34.8	81.3
Cc1onc(-c2ccccc2)c1-c1csc(C2CCN(C(=O)Nc3ccc(F)cc3)CC2)n1	66.3	31.8	0	54.8	87.1	17.7	0	85.4
Cc1onc(-c2ccc(F)cc2)c1-c1csc(C2CCN(C(=O)Nc3ccc(F)cc3)CC2)n1	35.8	56.7	6.7	35.5	74.2	52.3	50	76.1
Cc1onc(-c2ccccc2F)c1-c1csc(C2CCN(C(=O)Nc3ccc(F)cc3)CC2)n1	52.3	66.7	16.7	64.5	80.6	63.6	56.8	96.6
Cc1onc(-c2ccc(Cl)cc2Cl)c1-c1csc(C2CCN(C(=O)Nc3ccc(F)cc3)CC2)n1	34.9	70	20.2	32.3	83.8	63.6	45.5	90.3
Cc1onc(-c2ccc(F)cc2)c1-c1csc(C2CCN(C(=O)NC(C)C)CC2)n1	68.8	66.7	46.7	54.8	83.9	63.6	47.7	87.2
CCCCNC(=O)N1CCC(c2nc(-c3c(-c4ccc(F)cc4)noc3C)cs2)CC1	67.8	70	40	71	87.1	63.6	56.8	88.1
Cc1onc(-c2ccc(F)cc2)c1-c1csc(C2CCN(C(=O)Nc3ccccc3)CC2)n1	46.9	53.6	25	65.9	95.5	56.5	39.1	83.3
Cc1onc(-c2ccc(F)cc2)c1-c1csc(C2CCN(C(=S)Nc3ccccc3)CC2)n1	54.1	53.3	6.7	48.4	87.1	63.6	43.2	90.1
Cc1onc(-c2ccccc2F)c1-c1csc(C2CCN(C(=O)NC(C)C)CC2)n1	68.5	54.5	22.7	56.5	73.9	14.6	22	83.1
CCCCNC(=O)N1CCC(c2nc(-c3c(-c4ccccc4F)noc3C)cs2)CC1	61.5	70	43.3	58.1	90.3	63.6	61.4	86.2
Cc1onc(-c2ccccc2F)c1-c1csc(C2CCN(C(=O)Nc3ccccc3)CC2)n1	56.2	72.7	31.8	56.5	84.8	39	17.1	91.2
Cc1onc(-c2ccccc2F)c1-c1csc(C2CCN(C(=S)Nc3ccccc3)CC2)n1	64.2	60	43.3	48.4	83.9	59.1	45.5	92.7
Cc1onc(-c2ccccc2)c1-c1csc(C2CCN(C(=O)Nc3ccccc3)CC2)n1	51.4	70	30	52	78.3	63.6	52.3	80.4
COc1ccc(-c2noc(C)c2-c2csc(C3CCN(C(=O)Nc4ccccc4)CC3)n2)cc1	20.2	4.5	-22.7	45.7	76.1	24.6	-22	43.8
